Laboratory results from patent US7005513B1, “Functionalized glycosaminoglycan polymer and medical instruments and drugs by using the same” (Netech, Inc., priority 1999, dated 2006).

System: human coronary artery endothelial cells (CEC)
Assay: CEC proliferation on coated multiplate (WST-1)
Assay type: cell-based
Parameters: reference not given here
Settings: substance as plate coating, 3 days
Procedure: A polystyrene 96-well multiplate was coated with aqueous P-I-20 or P-N-12 solutions (0.5 mg/ml) of the present invention, and also 2% gelatin and 10 μg/ml of human fibronectin solution, these were inoculated with 6,000 human coronary artery endothelial cells (CEC) suspended in a Dulbecco modified Eagle medium (10% fetal bovine serum added), after which FGF2 or VEGF165 were added as cell growth factors, and this was cultured from 3 days. After culturing, a WST-1 reagent (cell counting kit, Dojindo) was used to count the number of increased cells, and the results of an evaluation of the proliferation rate are shown in Table 1.

Row | Substance | CEC Proliferation Rate (FGF2 4 μg/l) | CEC Proliferation Rate (FGF2 8 μg/l) | CEC Proliferation Rate (VEGF165 4 μg/l) | CEC Proliferation Rate (VEGF165 8 μg/l)
1 | Fibronectin | 273 | 327 | 371 | 436
2 | Gelatin | 356 | 389 | 335 | 385
